Reference: patent publication US10045990B2, “ERBB4 inhibitors and methods of use thereof” (Arizona Board of Regents on behalf of Arizona State …, priority 2015, dated 2018)

Tested on: protein-tyrosine kinases from the human genome
Settings: compared to the control slides (FIG. 9)
Description: NAPPA kinase microarrays we generated with virtually all protein-tyrosine kinases from the human genome. The coding sequence for each tyrosine kinase was clone into an expression plasmid and immobilized on the microarray surface, with one protein kinase per feature. After the microarray was expressed, any phosphorylation that occurred during the expression step was removed by a treatment with lambda phosphatase.
Unphosphorylated microarrays were then incubated with a kinase buffer (25 mM Tris-HCl (pH 7.5), 5 mM beta-glycerophosphate, 2 mM dithiothreitol (DTT), 0.1 mM Na3VO4, 10 mM MgCl2) supplemented with […] and/or kinase inhibitors (concentration ranging from 0-10 uM). The kinase autophosphorylation activity was measured through the levels of phosphorylation present in each feature and was detected by phospho-tyrosine antibody. […] Staurosporine is a pan kinase inhibitor used as a control.

CN[C@@H]1C[C@H]2O[C@@](C)([C@@H]1OC)n1c3ccccc3c3c4c(c5c6ccccc6n2c5c31)C(=O)NC4 [Staurosporine]
overall phosphorylation signal of the microarrays: drastically reduce
